Assay results published in patent US20240294498A1, “FACTOR XIIA INHIBITORS” (Lunac Therapeutics Ltd, priority 2021, published 2024).

Key:
Type in all cases: biochemical
thrombin = target: T1, thrombin (Homo sapiens, UniProt P00734); experiment: Determination of selectivity: thrombin inhibition (chromogenic substrate GPR); settings: fold selectivity for FXIIa over thrombin (human); category
T1 construct: FXa (5 nM) and thrombin (5 nM)
Method in brief: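 Thrombin (5 nM) preincubated with increasing compound concentrations (top 500 μM, 5% DMSO) 10 min at 37 °C in 50 mM Tris, 137 mM NaCl pH 7.4, then GPR chromogenic substrate at its KM. pNA release read kinetically at 405 nm for 3 h at 37 °C. IC50 from initial rates, converted to Ki via Cheng–Prusoff.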

FXa = FXa (Homo sapiens, UniProt P00742); experiment: Determination of selectivity: FXa inhibition (chromogenic substrate S2765); settings: fold selectivity for FXIIa over FXa (human); category
Chain of FXa (P00742 235-488 limits assumed): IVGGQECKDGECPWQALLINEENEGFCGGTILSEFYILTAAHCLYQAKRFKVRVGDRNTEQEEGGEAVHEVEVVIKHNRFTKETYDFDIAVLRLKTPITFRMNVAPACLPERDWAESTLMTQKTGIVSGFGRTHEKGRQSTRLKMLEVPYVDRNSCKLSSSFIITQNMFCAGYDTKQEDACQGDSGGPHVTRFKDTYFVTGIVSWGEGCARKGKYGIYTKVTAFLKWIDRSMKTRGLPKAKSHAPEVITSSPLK
Chain of FXa (P00742 41-179 partner limits assumed): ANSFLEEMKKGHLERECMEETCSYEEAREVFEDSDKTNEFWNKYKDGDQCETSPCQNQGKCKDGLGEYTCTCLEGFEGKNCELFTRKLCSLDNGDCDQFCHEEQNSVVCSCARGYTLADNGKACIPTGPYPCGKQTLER
Method in brief: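 FXa (5 nM) preincubated with increasing compound (top 500 μM) for 10 mins at 37° C in 50 mM Tris, 137 mM NaCl pH 7.4, 5% DMSO, then S2765 added at its KM. Absorbance at 405 nm followed kinetically for 3 hours; IC50 from initial rates, converted to Ki by Cheng-Prusoff.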

FXIIa = target: T2, FXIIa (Homo sapiens, UniProt P00748); experiment: Determination of Factor XIIa inhibition (chromogenic substrate S-2302); settings: human FXIIa alpha, Ki category
T2 construct: FXIIa alpha
T2 sequence (P00748 373-615 limits assumed): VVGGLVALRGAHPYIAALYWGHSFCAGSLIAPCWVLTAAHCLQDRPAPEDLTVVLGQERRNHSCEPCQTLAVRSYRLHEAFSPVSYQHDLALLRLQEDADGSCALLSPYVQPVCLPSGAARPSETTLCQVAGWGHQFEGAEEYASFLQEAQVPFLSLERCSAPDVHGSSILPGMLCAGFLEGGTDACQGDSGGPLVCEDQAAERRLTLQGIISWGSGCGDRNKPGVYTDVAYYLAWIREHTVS
T2 sequence (P00748 20-372 partner limits assumed): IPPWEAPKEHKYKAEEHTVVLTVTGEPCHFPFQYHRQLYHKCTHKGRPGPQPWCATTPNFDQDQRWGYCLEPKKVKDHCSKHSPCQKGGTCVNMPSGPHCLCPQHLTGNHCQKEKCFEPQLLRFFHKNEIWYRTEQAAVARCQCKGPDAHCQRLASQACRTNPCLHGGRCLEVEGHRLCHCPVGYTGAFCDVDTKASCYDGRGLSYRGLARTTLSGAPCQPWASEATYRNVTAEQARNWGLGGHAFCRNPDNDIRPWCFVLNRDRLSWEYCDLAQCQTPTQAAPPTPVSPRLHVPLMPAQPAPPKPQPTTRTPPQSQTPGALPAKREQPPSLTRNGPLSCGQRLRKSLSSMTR
Method in brief: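 Compound preincubated with 10 nM FXIIa for 10 min at 37° C in 50 mM Tris, 137 mM NaCl, pH 7.4, 5% DMSO, top concentration 500 μM; S-2302 added at Km. pNA release followed at 405 nm for 3 h; IC50 from initial rates, converted to Ki via Ki = IC50/(1+[S]/Km).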

SMILES	Thrombin (human)/FXIIa alpha (human) (thrombin)	FXa (human)/FXIIa alpha (human) (FXa)	Ki (FXIIa) [nM]
Cn1nnc2cc(CNC(=O)[C@@H]3C[C@@H](Cc4ccc(C(F)(F)F)nc4)CN3C(=O)[C@@H]3NCCC[C@@H]3C(=O)N3CCCC3)ccc21 [Example M05863, (2S,4R)-N-((1-methyl-1H-benzo[d][1,2,3]triazol-5-yl)methyl)-1-((2R,3S)-3-(pyrrolidine-1-carbonyl)piperidine-2-carbonyl)-4-((6-(trifluoromethyl)pyridin-3-yl)methyl)pyrrolidine-2-carboxamide]	+++ (fold selectivity values greater than 100)	∘∘∘	< 200
Cn1ncc2cc(CNC(=O)[C@@H]3C[C@@H](Cc4ccc(OC(F)F)cc4)CN3C(=O)[C@@H]3NCCC[C@@H]3C(=O)N3CCCC3)ccc21 [Example M06021]	+++ (fold selectivity values greater than 100)	∘∘∘	200 to 800
Cc1ccc(C[C@@H]2C[C@@H](C(=O)NCCCn3ccnc3)N(C(=O)[C@@H]3NCCC[C@@H]3C(=O)N3CCC[C@@H]3C(F)(F)F)C2)cc1 [Example M06089]	+++ (fold selectivity values greater than 100)	∘∘∘	200 to 800
Cn1nnc2cc(CNC(=O)[C@@H]3C[C@@H](Cc4ccc5ccccc5c4)CN3C(=O)[C@@H]3NCCC[C@@H]3C(=O)N3CCCC3)ccc21 [Example M05881, (2S,4R)-N-((1-methyl-1H-benzo[d][1,2,3]triazol-5-yl)methyl)-4-(naphthalen-2-ylmethyl)-1-((2R,3S)-3-(pyrrolidine-1-carbonyl)piperidine-2-carbonyl)pyrrolidine-2-carboxamide]	+++ (fold selectivity values greater than 100)	∘∘∘	< 200
Cc1ccc(C[C@@H]2C[C@@H](C(=O)NCc3ccc4c(cnn4C)c3)N(C(=O)[C@@H]3NCCC[C@@H]3C(=O)N3CC[C@H](F)C3)C2)cc1 [Example M05777, (2S,4R)-1-((2R,3S)-3-((S)-3-fluoropyrrolidine-1-carbonyl)piperidine-2-carbonyl)-N-((1-methyl-1H-indazol-5-yl)methyl)-4-(4-methylbenzyl)pyrrolidine-2-carboxamide]	+++ (fold selectivity values greater than 100)	∘∘∘	200 to 800
COc1ccc(C[C@@H]2C[C@@H](C(=O)NCc3ccc4c(c3)nnn4C)N(C(=O)[C@@H]3NCCC[C@@H]3C(=O)N3CCCC3)C2)cc1 [Example M04490]	+++ (fold selectivity values greater than 100)	∘∘∘	< 200
Cc1ccc(C[C@@H]2C[C@@H](C(=O)NCc3ccc4c(cnn4C)c3)N(C(=O)[C@@H]3NCCC[C@@H]3C(=O)N(C)C3CC3)C2)cc1 [Example M05752, (2R,3S)-N-cyclopropyl-N-methyl-2-((2S,4R)-2-(((1-methyl-1H-indazol-5-yl)methyl)carbamoyl)-4-(4-methylbenyl)pyrrolidine-1-carbonyl)piperidine-3-carboxamide]	++ (a fold selectivity value of 10 to 100)	∘∘∘	< 200
Cc1ccc(C[C@@H]2C[C@@H](C(=O)NCc3ccc4c(cnn4C)c3)N(C(=O)[C@@H]3NCCC[C@@H]3C(=O)N(C)C)C2)cc1 [Example M05751, (2R,3S)-N,N-dimethyl-2-((2S,4R)-2-(((1-methyl-1H-indazol-5-yl)methyl)carbamoyl)-4-(4-methylbenzyl)pyrrlidine-1-carbonyl)piperidine-3-carboxamide]	+++ (fold selectivity values greater than 100)	∘∘∘	200 to 800
Cc1ccc(C[C@@H]2C[C@@H](C(=O)NCc3ccc4c(cnn4C)c3)N(C(=O)[C@@H]3NCCC[C@@H]3C(=O)N3CCCN(C)CC3)C2)cc1 [Example M05840, (2S,4R)-1-((2R,3S)-3-(4-methyl-1,4-diazepane-1-carbonyl)piperidine-2-carbonyl)-N-((1-methyl-1H-indazol-5-yl)methyl)-4-(4-methylbenzyl)pyrrolidine-2-carboxamide]	+++ (fold selectivity values greater than 100)	∘∘∘	< 200
Cn1nnc2cc(CNC(=O)[C@@H]3C[C@@H](Cc4ccc(C5CC5)cc4)CN3C(=O)[C@@H]3NCCC[C@@H]3C(=O)N3CCCC3)ccc21 [Example M05934, (2S,4R)-4-(4-cyclopropylbenzyl)-N-((1-methyl-1H-benzo[d][1,2,3]triazol-5-yl)methyl)-1-((2R,3S)-3-(pyrrolidine-1-carbonyl)piperidine-2-carbonyl)pyrrolidine-2-carboxamide]	+++ (fold selectivity values greater than 100)	∘∘∘	< 200
Cc1ccc(O[C@@H]2C[C@@H](C(=O)NCc3ccc4c(cnn4C)c3)N(C(=O)[C@@H]3NCCC[C@@H]3C(=O)N3CCCC3)C2)cc1 [Example M05798, (2S,4R)-N-[(1-methylindazol-5-yl)methyl]-4-(4-methylphenoxy)-1-[(2R,3S)-3-(pyrrolidine-1-carbonyl)piperidine-2-carbonyl]pyrrolidine-2-carboxamide]	+++ (fold selectivity values greater than 100)	∘∘∘	800 to 5000
Cn1ncc2cc(CNC(=O)[C@@H]3C[C@@H](Cc4ccc(Cl)cc4)CN3C(=O)[C@@H]3NCCC[C@@H]3C(=O)N3CCCC3)ccc21 [Example M05854, (2S,4R)-4-(4-chlorobenzyl)-N-((1-methyl-1H-indazol-5-yl)methyl)-1-((2R,3S)-3-(pyrrolidine-1-carbonyl)piperidine-2-carbonyl)pyrrolidine-2-carboxamide]	+++ (fold selectivity values greater than 100)	∘∘∘	200 to 800
Cc1ccc(C[C@@H]2C[C@@H](C(=O)NCc3ccc4c(cnn4C)c3)N(C(=O)[C@@H]3NCCC[C@@H]3C(=O)N(C)CCN3CCCC3)C2)cc1 [Example M06039, (2R,3S)-N-methyl-2-((2S,4R)-2-(((1-methyl-1H-indazol-5-yl)methyl)carbamoyl)-4-(4-methylbenzyl)pyrrolidine-1-carbonyl)-N-(2-(pyrrolidin-1-yl)ethyl)piperidine-3-carboxamide]	+++ (fold selectivity values greater than 100)	∘∘∘	< 200
COc1ccc(C[C@@H]2C[C@@H](C(=O)NCc3ccc4c(cnn4C)c3)N(C(=O)[C@@H]3NCCC[C@@H]3C(=O)N3CCCC3)C2)cn1 [Example M05875, (2S,4R)-4-((6-methoxypyridin-3-yl)methyl)-N-((1-methyl-1H-indazol-5-yl)methyl)-1-((2R,3S)-3-(pyrrolidine-1-carbonyl)piperidine-2-carbonyl)pyrrolidine-2-carboxamide]	+++ (fold selectivity values greater than 100)	∘∘∘	200 to 800
Cn1nnc2cc(CNC(=O)[C@@H]3C[C@@H](CC4=CCC5(CC4)CC5)CN3C(=O)[C@@H]3NCCC[C@@H]3C(=O)N3CCCC3)ccc21 [Example M05991]	+++ (fold selectivity values greater than 100)	∘∘∘	< 200
COc1ccc(C[C@@H]2C[C@@H](C(=O)NCc3cc4cnccc4[nH]3)N(C(=O)[C@@H]3NCCC[C@@H]3C(=O)N3CCCC3(C)C)C2)cc1 [Example M00467]	+ (fold selectivity values less than 10 (e.g. a fold selectivity value of less than 10 and greater than 1))	∘∘	< 200
Cc1ccc(C[C@@H]2C[C@@H](C(=O)NCc3ccc4c(cnn4C)c3)N(C(=O)[C@@H]3NCCC[C@@H]3C(=O)N3CCOCC3)C2)cc1 [Example M05753, (2S,4R)—N-((1-methyl-1H-indazol-5-yl)methyl)-4-(4-methylbenzyl)-1-((2R,3S)-3-(morpholine-4-carbonyl)piperidine-2-carbonyl)pyrrolidine-2-carboxamide]	++ (a fold selectivity value of 10 to 100)	∘∘∘	200 to 800
